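Five concentrations, 48 hours, 96-well plates. Here, GI50 denotes the concentration required for 50% inhibition of growth.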 The source made the active and inactive calls. Cut-off read from the data, not from the text of the source: active = GI50 up to about 1.1 µM and inactive = higher.
Key:
Assay in all cases: NCI anticancer screen, dose series, 48 h
A498 = test system: A498
A549 = test system: A549
ACHN = test system: ACHN
CAKI-1 = test system: CAKI-1
COLO 205 = test system: COLO 205
HCT-15 = test system: HCT-15
HOP-62 = test system: HOP-62
IGROV-1 = test system: IGROV-1
KM12 = test system: KM12
LOX IMVI = test system: LOX IMVI
NCI-H23 = test system: NCI-H23
NCI-H460 = test system: NCI-H460
OVCAR-5 = test system: OVCAR-5
RPMI-8226 = test system: RPMI-8226
SK-MEL-2 = test system: SK-MEL-2
SK-MEL-5 = test system: SK-MEL-5
SK-OV-3 = test system: SK-OV-3
SNB-19 = test system: SNB-19
U-251 = test system: U-251
UACC-257 = test system: UACC-257

SMILES | GI50 (A498) | GI50 (A549) | GI50 (ACHN) | GI50 (CAKI-1) | GI50 (COLO 205) | GI50 (HCT-15) [µM] | GI50 (HOP-62) | GI50 (IGROV-1) | GI50 (KM12) | GI50 (LOX IMVI) | GI50 (NCI-H23) | GI50 (NCI-H460) | GI50 (OVCAR-5) | GI50 (RPMI-8226) | GI50 (SK-MEL-2) | GI50 (SK-MEL-5) | GI50 (SK-OV-3) | GI50 (SNB-19) | GI50 (U-251) | GI50 (UACC-257)
CC12CCC3(C1)[C@H](CC2=O)C[C@@H](OC(=O)c1ccccc1)C1C(C)(CO)CCC[C@@]13C (stereo partly specified) | 3.12 µM (inactive) | 3.46 µM (inactive) | 0.342 µM (active) | 0.861 µM (active) | 4.35 µM (inactive) | 1.5 | 5.41 µM (inactive) | 6.49 µM (inactive) | 2.9 µM (inactive) | 2.17 µM (inactive) | 0.681 µM (active) | 1.05 µM (active) | 2 µM (inactive) | 0.746 µM (active) | 8.32 µM (inactive) | < 0.01 µM (active) | 17.1 µM (inactive) | 5.86 µM (inactive) | 2.38 µM (inactive) | 0.149 µM (active)
O=C(O)C12CCCC(CCC1)C2 | > 100 µM (inactive) | > 100 µM (inactive) | > 100 µM (inactive) | > 100 µM (inactive) | > 100 µM (inactive) | > 100 | > 100 µM (inactive) | > 100 µM (inactive) | > 100 µM (inactive) | > 100 µM (inactive) | > 100 µM (inactive) | > 100 µM (inactive) | > 100 µM (inactive) | > 100 µM (inactive) | > 100 µM (inactive) | > 100 µM (inactive) | > 100 µM (inactive) | > 100 µM (inactive) | > 100 µM (inactive) | > 100 µM (inactive)
COC(=O)C1=CSC2(S1)C(C(=O)OC)=CSc1c2ssc1=O (stereo unspecified) | 6.28 µM (inactive) | 7.43 µM (inactive) | 1.87 µM (inactive) | 2.11 µM (inactive) | 1.87 µM (inactive) | 1.54 | 3.06 µM (inactive) | 1.66 µM (inactive) | 3.9 µM (inactive) | 1.64 µM (inactive) | 2 µM (inactive) | 6.15 µM (inactive) | 8.15 µM (inactive) | 1.55 µM (inactive) | 1.96 µM (inactive) | 2.24 µM (inactive) | 9.42 µM (inactive) | 6.05 µM (inactive) | 1.54 µM (inactive) | 1.87 µM (inactive)
CC(C)(C)[Si](C)(C)OCC1OC(n2cnc3c(N)ncnc32)CC1O (stereo unspecified) | 81.8 µM (inactive) |  |  | 86.9 µM (inactive) | 91.6 µM (inactive) | 81.8 | 92.7 µM (inactive) | 76.6 µM (inactive) | 39.6 µM (inactive) | > 100 µM (inactive) | 79.4 µM (inactive) | 97.5 µM (inactive) | 60.8 µM (inactive) | 52.8 µM (inactive) | 56.1 µM (inactive) | 35.6 µM (inactive) | 81.5 µM (inactive) | > 100 µM (inactive) | > 100 µM (inactive) | > 100 µM (inactive)
Cc1ccc(Nc2nc(C)c(C(=O)CC(=O)C(=O)Nc3c(C)cccc3C(C)(C)C)s2)cc1 | > 100 µM (inactive) | > 100 µM (inactive) | > 100 µM (inactive) | > 100 µM (inactive) | > 100 µM (inactive) | > 100 | 38.5 µM (inactive) | > 100 µM (inactive) | > 100 µM (inactive) | > 100 µM (inactive) | > 100 µM (inactive) | > 100 µM (inactive) | > 100 µM (inactive) | > 100 µM (inactive) | > 100 µM (inactive) | > 100 µM (inactive) | > 100 µM (inactive) | > 100 µM (inactive) | 71.8 µM (inactive) | > 100 µM (inactive)
COc1cc2c(cc1OC)CCN=C2 | > 100 µM (inactive) |  |  | > 100 µM (inactive) | > 100 µM (inactive) | > 100 | > 100 µM (inactive) | > 100 µM (inactive) | > 100 µM (inactive) | > 100 µM (inactive) | > 100 µM (inactive) | 66.5 µM (inactive) | > 100 µM (inactive) | > 100 µM (inactive) | > 100 µM (inactive) | > 100 µM (inactive) | > 100 µM (inactive) | > 100 µM (inactive) | > 100 µM (inactive) | > 100 µM (inactive)
CNC(=O)CNC(=O)CCC(=O)N(C)C | > 100 µM (inactive) | > 100 µM (inactive) | > 100 µM (inactive) | > 100 µM (inactive) | > 100 µM (inactive) | > 100 | > 100 µM (inactive) | > 100 µM (inactive) | > 100 µM (inactive) | > 100 µM (inactive) | > 100 µM (inactive) | > 100 µM (inactive) | > 100 µM (inactive) | > 100 µM (inactive) | > 100 µM (inactive) | > 100 µM (inactive) | > 100 µM (inactive) | > 100 µM (inactive) | > 100 µM (inactive) | > 100 µM (inactive)
CCCCCCNC(=O)c1cc(C#Cc2cc(OC)ccc2OC)ccc1OC | > 100 µM (inactive) | > 100 µM (inactive) | > 100 µM (inactive) | > 100 µM (inactive) | 55.3 µM (inactive) | 7.48 |  | 72.1 µM (inactive) | > 100 µM (inactive) | > 100 µM (inactive) | 47.4 µM (inactive) | 8.73 µM (inactive) | > 100 µM (inactive) | 8.28 µM (inactive) | > 100 µM (inactive) | 19.6 µM (inactive) | > 100 µM (inactive) | > 100 µM (inactive) | > 100 µM (inactive) | > 100 µM (inactive)
CCCCC(=O)c1c(O)nc2sccn2c1=O | > 10 µM (inactive) | > 10 µM (inactive) | > 10 µM (inactive) | > 10 µM (inactive) | > 10 µM (inactive) | > 10 | > 10 µM (inactive) | > 10 µM (inactive) | > 10 µM (inactive) | > 10 µM (inactive) | > 10 µM (inactive) | > 10 µM (inactive) | > 10 µM (inactive) | > 10 µM (inactive) | > 10 µM (inactive) | > 10 µM (inactive) | > 10 µM (inactive) | > 10 µM (inactive) | > 10 µM (inactive) | 
CC1(C)OC2CC(=O)OCC23C1CC(=O)C1(C)C3CCC2(C)C(c3ccoc3)OC(=O)C3OC321 (stereo unspecified) | > 125 µM (inactive) | > 125 µM (inactive) |  | 16.1 µM (inactive) | > 125 µM (inactive) | > 125 | > 125 µM (inactive) | > 125 µM (inactive) | > 125 µM (inactive) | > 125 µM (inactive) | > 125 µM (inactive) | > 125 µM (inactive) | > 125 µM (inactive) | > 125 µM (inactive) | > 125 µM (inactive) | > 125 µM (inactive) | > 125 µM (inactive) | > 125 µM (inactive) | > 125 µM (inactive) | 124 µM (inactive)
Nc1nc(Cl)nc2c1ncn2C1CCC(CO)O1 (stereo unspecified) | > 100 µM (inactive) |  |  | > 100 µM (inactive) | > 100 µM (inactive) | > 100 | > 100 µM (inactive) | > 100 µM (inactive) | > 100 µM (inactive) | > 100 µM (inactive) | 87.9 µM (inactive) | > 100 µM (inactive) | > 100 µM (inactive) | > 100 µM (inactive) | > 100 µM (inactive) | > 100 µM (inactive) | > 100 µM (inactive) | > 100 µM (inactive) | > 100 µM (inactive) | > 100 µM (inactive)

Reference: ChEMBL document CHEMBL1201862, “PubChem BioAssay data set” (2004)
